From patent US10214526B2, “Substituted pyrazolo[1,5-a]-pyridine-3-carboxamides and use thereof” (Bayer Pharma Aktiengesellschaft, priority 2015, dated 2019) come the findings set out here.

Structures are written as SMILES. Structures can show the parent of a compound that is named as a salt.

This assay has as its system recombinant guanylate cyclase reporter cell line. The assay can be described thus: Effect on a recombinant guanylate cyclase reporter cell line. It counts as cell-based. To be noted: in some cases mean values from individual determinations. Here is the method: B-2. Effect on a Recombinant Guanylate Cyclase Reporter Cell Line
The cellular activity of the compounds according to the invention is determined using a recombinant guanylate cyclase reporter cell line, as described in F. Wunder et al., Anal. Biochem. 339, 104-112 (2005).
Representative MEC values (MEC=minimum effective concentration) for the compounds of the invention are shown in the table below (in some cases as mean values from individual determinations): […]

For `Cc1cc(OCc2c(F)cccc2F)n2nc(C)c(C(=O)NC(C)(CO)c3nnn(C(F)F)n3)c2c1` (racemic) [Example 2, rac-7-[(2,6-Difluorobenzyl)oxy]-N-{2-[2-(difluoromethyl)-2H-tetrazol-5-yl]-1-hydroxypropan-2-yl}-2,5-dimethylpyrazolo[1,5-a]pyridine-3-carboxamide], the “MEC (minimum effective concentration)” value was 0.10 µM.
As for `[2H]C([2H])([2H])CC(C)(N)CNC(=O)c1c(C)nn2c(OCc3c(F)cccc3F)cc(C)cc12` (single isomer, unassigned; enantiomer a) [Example 3, ent-N-[2-Amino-2-methyl(4,4,4,4-^2H3)butyl]-7-[(2,6-difluorobenzyl)oxy]-2,5-dimethylpyrazolo[1,5-a]pyridine-3-carboxamide (Enantiomer A)], the “MEC (minimum effective concentration)” value came to 0.30 µM.
In the case of `Cc1cc(OCc2c(F)cccc2F)n2nc(C)c(C(=O)NCC(C)(N)CC[Si](C)(C)C)c2c1` (single isomer, unassigned; enantiomer a) [Example 4, ent-N-[2-Amino-2-methyl-4-(trimethylsilyl)butyl]-7-[(2,6-difluorobenzyl)oxy]-2,5-dimethylpyrazolo[1,5-a]pyridine-3-carboxamide (Enantiomer A)], the “MEC (minimum effective concentration)” value worked out at 0.53 µM.
For the compound `Cc1cc(OCc2c(F)cccc2F)n2nc(C)c(C(=O)NCC(C)(N)CC[Si](C)(C)C)c2c1` (single isomer, unassigned; enantiomer b) [Example 5, ent-N-[2-Amino-2-methyl-4-(trimethylsilyl)butyl]-7-[(2,6-difluorobenzyl)oxy]-2,5-dimethylpyrazolo[1,5-a]pyridine-3-carboxamide (Enantiomer B)], the “MEC (minimum effective concentration)” value is 0.30 µM.
Regarding `Cc1cc(OCc2c(F)cccc2F)n2nc(C)c(C(=O)N[C@@](C)(CO)c3nnc(C)s3)c2c1` [Example 1, 7-[(2,6-Difluorobenzyl)oxy]-N-[(2S)-1-hydroxy-2-(5-methyl-1,3,4-thiadiazol-2-yl)propan-2-yl]-2,5-dimethylpyrazolo[1,5-a]pyridine-3-carboxamide trifluoroacetate], the “MEC (minimum effective concentration)” value turned out to be 0.20 µM.
